molecular target: T1, Lp-PLA2 (Homo sapiens, UniProt Q13093); test: Lipoprotein-associated phospholipase A2 (Lp-PLA2) human plasma assay (Thio-PAF assay); type: biochemical; settings: Lp-PLA2 human plasma assay (Thio-PAF), pooled human plasma, 30-min pre-incubation at room temperature
T1 construct: aliquoted and thawed 40 μL of pooled human plasma was previously added; from tissue; host or cells: pooled human plasma
T1 sequence (Q13093 22-441): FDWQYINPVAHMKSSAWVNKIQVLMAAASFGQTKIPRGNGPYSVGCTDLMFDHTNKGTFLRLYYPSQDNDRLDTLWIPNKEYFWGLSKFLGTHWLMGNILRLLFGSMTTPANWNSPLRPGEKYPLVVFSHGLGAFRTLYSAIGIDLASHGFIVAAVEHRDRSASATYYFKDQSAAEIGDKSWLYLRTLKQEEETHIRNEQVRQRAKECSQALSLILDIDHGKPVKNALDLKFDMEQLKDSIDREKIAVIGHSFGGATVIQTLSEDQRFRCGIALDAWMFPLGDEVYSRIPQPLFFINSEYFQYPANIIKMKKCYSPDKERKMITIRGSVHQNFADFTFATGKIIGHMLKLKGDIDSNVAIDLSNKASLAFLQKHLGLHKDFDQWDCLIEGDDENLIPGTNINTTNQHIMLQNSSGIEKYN

Compound	IC50
O=c1nc(OCCc2cc(F)c(Oc3ccnc(C(F)(F)F)c3)c(F)c2)cc2n1C[C@]13CO[C@H](CN21)C3 [Example 99, (3S,11aR)-7-(3,5-difluoro-4-((2-(trifluoromethyl)pyridin-4-yl)oxy)phenethoxy)-3,4-dihydro-1H,9H,11H-3,11a-methanopyrimido[6′-,1′:2,3] imidazo[5,1-c][1,4]oxazin-9-one]	5.6 nM
N#Cc1cc(COc2cc3n(c(=O)n2)CC24CC(CN32)C4)ccc1Oc1ccnc(C(F)(F)F)c1 [Example 43]	4 nM
N#Cc1cc(COc2cc3n(c(=O)n2)CC24CC(CN32)C4)ccc1F [Example 103]	6.2 nM
O=c1nc(OCc2cc(F)c(Oc3ccnc(OC(F)(F)F)c3)c(F)c2)cc2n1CC13CC(CN21)C3 [Example 37, 3-((3,5-difluoro-4-((2-(trifluoromethoxy)pyridin-4-yl)oxy)benzyl)oxy)-7,8-dihydro-1H,6H,9H-7,8a-methanopyrrolo[1′,2′:3,4] imidazo[1,2-c]pyrimidin-1-one]	5.8 nM
N#Cc1cc(COc2cc3n(c(=O)n2)C[C@]24CO[C@H](CN32)C4)ccc1Oc1cccc(C(F)(F)F)c1 [Example 19, 5-((((3S,11aR)-9-oxo-3,4-dihydro-1H,9H,11H-3,11a-methanopyrimido[6′,1′:2,3]imidazo[5,1-c][1,4]oxazin-7-yl)oxy)methyl)-2-(3-(trifluoromethyl)phenoxy) benzonitrile]	3.9 nM
CC12COCCN1c1cc(OCc3ccc(Oc4cc(C#N)cc(C(F)(F)F)c4)c(F)c3)nc(=O)n1C2 (stereo not shown) [Example 83]	4.9 nM
O=c1nc(OCc2cc(F)c(Oc3ccnc(C(F)(F)F)c3)c(F)c2)cc2n1CC13CCC(CC1)CN23 [Example 53, 3-((3,5-difluoro-4-((2-(trifluoromethyl)pyridin-4-yl)oxy)benzyl)oxy)-6,7,8,9-tetrahydro-1H,10H-7,9a-ethanopyrido[1′,2′:3,4] imidazo[1,2-c]pyrimidin-1-one]	14.3 nM
Cc1cc(Oc2c(F)cc(COc3cc4n(c(=O)n3)CC3(C)COCCN43)cc2F)ccn1 (stereo not shown) [Example 79, 7-((3,5-difluoro-4-((2-methyl-pyridin-4-yl)oxy)benzyl)oxy)-11a-methyl-3,4,11,11a-tetrahydro-1H,9H-pyrimido[6′,1′:2,3]imidazo [5,1-c][1,4]oxazin-9-one]	6.1 nM
O=c1nc(OCc2cc(F)c(Oc3ccc(Cl)c(C(F)(F)F)c3)c(F)c2)cc2n1C[C@]13CO[C@H](CN21)C3 [Example 4, (3S,11aR)-7-((4-(4-chloro-3-(trifluoromethyl)phenoxy)-3,5-difluorobenzyl)oxy)-3,4-dihydro-1H,9H,11H-3,11a-methanopyrimido[6′-,1′:2,3] imidazo[5,1-c][1,4]oxazin-9-one]	2.5 nM
O=c1nc(OCc2cc(F)c(Oc3ccc(C(F)(F)F)nc3)c(F)c2)cc2n1C[C@]13CO[C@H](CN21)C3 [Example 9]	6.5 nM
O=c1nc(OCc2cccc(F)c2F)cc2n1CC13CC(CN21)C3 [Example 45, 3-((2,3-difluorobenzyl)oxy)-7,8-dihydro-1H,6H,9H-7,8a-methanopyrrolo[1′,2′:3,4] imidazo[1,2-c]pyrimidin-1-one]	71.8 nM
CC12CCCCN1c1cc(OCc3ccc(Oc4ccc(Cl)c(F)c4)c(C#N)c3)nc(=O)n1C2 (stereo not shown) [Example 72, 2-(4-chloro-3-fluorophenoxy)-5-(((-9a-methyl-1-oxo-6,7,8,9,9a,10-hexahydro-1H-pyrido[1′,2′:3,4]imidazo [1,2-c]pyrimidin-3-yl)oxy)methyl)benzonitrile]	7.6 nM
CC12COCCN1c1cc(OCc3cc(F)c(Oc4cncc(C(F)(F)F)c4)c(F)c3)nc(=O)n1C2 (stereo not shown) [Example 80, 7-((3,5-difluoro-4-((5-(trifluoromethyl)pyridin-3-yl)oxy)benzyl)oxy)-11a-methyl-3,4,11,11a-tetrahydro-1H,9H-pyrimido[6′,1′:2,3]imidazo [5,1-c][1,4]oxazin-9-one]	3.3 nM
O=c1nc(OCc2cc(F)c(Oc3cncc(C(F)(F)F)c3)c(F)c2)cc2n1C[C@]13CO[C@H](CN21)C3 [Example 8]	4.9 nM
N#Cc1cc(COc2cc3n(c(=O)n2)CC24CCC(CC2)N34)ccc1Oc1cccc(C(F)(F)F)c1 [Example 2, 5-(((1-Oxo-7,8-dihydro-1H,6H,9H-6,8a-ethanopyrrolo[1′,2′:3,4]imidazo[1,2-c]pyrimidin-3-yl)oxy)methyl)-2-(3-(trifluoromethyl)phenoxy)benzonitrile]	2.6 nM
O=c1nc(OCc2cc(F)c(F)c(F)c2)cc2n1CC13CC(CN21)C3 [Example 98, 3-((3,4,5-trifluorobenzyl)oxy)-7,8-dihydro-1H,6H,9H-7,8a-methanopyrrolo[1′,2′:3,4] imidazo[1,2-c]pyrimidin-1-one]	30.2 nM

Now from value to compound:

IC50	Compound
7.4 nM	O=c1nc(OCCc2ccc(Oc3ccc(Cl)c(C(F)(F)F)c3)c(F)c2)cc2n1CC13CC(CN21)C3 [Example 186, 3-(4-(4-chloro-3-(trifluoromethyl)phenoxy)-3-fluorophenethoxy)-7,8-dihydro-1H,6H,9H-7,8a-methanopyrrolo[1′,2′:3,4]imidazo[1,2-c] pyrimidin-1-one]
168 nM	COc1c(NCc2ccc(F)c(F)c2)nc(=O)n2c1N1C[C@@H]3C[C@]1(CO3)C2 [Example 175, (3S,11aR)-7-((3,4-Difluorobenzyl)amino)-6-methoxy-3,4-dihydro-1H,9H,11H-3,11a-methanopyrimido[6′, 1′:2, 3]imidazo[5,1-c] [1, 4]oxazin-9-one]
3.9 nM	O=c1nc(OCc2ccc(Oc3ccnc(C(F)(F)F)c3)c(F)c2)cc2n1CC13CCC(COC1)N23 (stereo not shown) [Example 152, 7-((3-fluoro-4-((2-(trifluoromethyl)pyridin-4-yl)oxy)benzyl)oxy)-3,4-dihydro-1H,9H,11H-4,11a-ethanopyrimido[6′,1′:2,3] imidazo[5,1-c][1,4]oxazin-9-one]
13.9 nM	O=c1nc(OCc2cc(F)c(Oc3ccnc(C(F)F)c3)c(F)c2)cc2n1CC13CC(CN21)C3 [Example 176, 3-((4-((2-(difluoromethyl)pyridin-4-yl)oxy)-3,5-difluorobenzyl)oxy)-7,8-dihydro-1H,6H, 9H-7,8a-methanopyrrolo[1′,2′:3,4]imidazo [1,2-c]pyrimidin-1-one]
6.2 nM	COc1c(OCCc2ccc(Oc3ccnc(C(F)(F)F)c3)c(F)c2)nc(=O)n2c1N1CC3CC1(C3)C2 [Example 191, 3-(3-fluoro-4-((2-(trifluoromethyl)pyridin-4-yl)oxy)phenethoxy)-4-methoxy-7,8-dihydro-1H,6H,9H-7,8a-methanopyrrolo[1′,2′:3,4] imidazo[1,2-c]pyrimidin-1-one]
4.3 nM	O=c1nc(OCc2ccc(Oc3cncc(C(F)(F)F)c3)c(F)c2)cc2n1CC13CC(CN21)C3 [Example 148, 3-((3-fluoro-4-((5-(trifluoromethyl)pyridin-3-yl)oxy)benzyl)oxy)-7,8-dihydro-1H,6H,9H-7,8a-methanopyrrolo[1′,2′:3,4] imidazo[1,2-c]pyrimidin-1-one]
6.2 nM	O=c1nc(OCc2ccc(Oc3ccnc(C(F)(F)F)c3)c(F)c2)cc2n1C[C@@]13C[C@@H](CN21)N(Cc1ccccc1)C3 [Example 178, (3S,11aS)-2-benzyl-7-((3-fluoro-4-((2-(tri-fluoromethyl)pyridin-4-yl)oxy)benzyl)oxy)-1,2,3,4-tetrahydro-9H,11H-3,11a-methano-pyrazino[1′,2′:3,4]imidazo[1,2-c]pyrimidin-9-one]
4 nM	O=c1nc(OCc2cc(F)c(Oc3cccc(C(F)(F)F)c3)c(F)c2)cc2n1C[C@]13CO[C@H](CN21)C3 [Example 194, (3S,11aR)-7-((3,5-difluoro-4-(3-(trifluoro-methyl)phenoxy)benzyl)oxy)-3,4-dihydro-1H,9H,11H-3,11a-methanopyrimido[6′,1′:2,3] imidazo[5,1-c][1,4]oxazin-9-one]
5.1 nM	O=C1N(CC23CC(C2)C3)[C@@H]2CN3c4cc(OCc5ccc(Oc6ccnc(C(F)(F)F)c6)c(F)c5)nc(=O)n4C[C@]13C2 [Example 198, (3S,11aR)-2-(bicyclo[1.1.1]pent-1-ylmethyl)-7-((3-fluoro-4-((2-(trifluoromethyl)pyridin-4-yl)oxy)benzyl)oxy)-3,4-dihydro-9H,11H-3,11a-methanopyrazino[1′,2′:3,4]imidazo [1,2-c]pyrimidin-1,9(2H)-dione]
9.5 nM	CC(C)c1c(OCc2cc(F)c(Oc3ccnc(C(F)(F)F)c3)c(F)c2)nc(=O)n2c1N1C[C@@H]3C[C@]1(CO3)C2 [Example 107, (3S,11aR)-7-((3,5-difluoro-4-((2-(trifluoromethyl)pyridin-4-yl)oxy)benzyl)oxy)-6-isopropyl-3,4-dihydro-1H,9H,11H-3,11a-methanopyrimido[6′,1′:2,3] imidazo[5,1-c][1,4]oxazin-9-one]
5.9 nM	O=c1nc(OCCc2ccc(Oc3ccnc(C(F)(F)F)c3)c(F)c2)cc2n1CC13CC(CN21)C3 [Example 190, 3-(3-fluoro-4-((2-(trifluoromethyl)pyridin-4-yl)oxy)phenethoxy)-7,8-dihydro-1H,6H,9H-7,8a-methanopyrrolo[1′,2′:3,4]imidazo[1,2-c] pyrimidin-1-one]
14 nM	O=c1nc(OCc2ccc(Oc3ccnc(C(F)(F)F)c3)cc2)cc2n1CC13CC(CN21)C3 [Example 109, 3-((4-((2-(trifluoromethyl)pyridin-4-yl)oxy)benzyl)oxy)-7,8-dihydro-1H,6H,9H-7,8a-methanopyrrolo[1′,2′:3,4] imidazo[1,2-c]pyrimidin-1-one]
